Test results taken from US10065990B2, “Cyclic peptide compound, and preparation method, pharmaceutical composition and use thereof” (HANGZHOU GUANYU BIO-MEDICAL CO., LTD, priority 2013, dated 2018).
Read-outs that look alike come from different tables or passages of the source.

Key:
[1] = tested on: Huh-7 (human hepatoma cells); assay: MTT cancer cell growth inhibition; format: cell-based; settings: Homo sapiens, Huh-7, 72 h, MTT, 72 hours incubation, Huh-7 cells; read-out: GI50 Huh-7
Source text: (§1) MTT assay principle is yellow MTT can penetrate membrane into the cell, succinic dehydrogenase of the mitochondria in living cells can make exogenous MTT reduction of insoluble in water of blue-violet acicular formazan for crystallization and deposition in the cell, crystallization can be dissolved dimethyl sulfoxide (DMSO) solution, detected its absorbance at 490 nm/570 nm wavelength by enzyme-linked immunosorbent assay, which can reflect the number of cells.
(§2) Using DMEM+10% FBS culture medium or using 1640+10% FBS culture, respectively.
(§3) a) Cells were seeded in 96-well plates with the inoculation of 1500/well, 190 μl/hole, 37° C., 5% of CO2 incubator overnight;
(§4) b) The next day each well was added 10 μl of different drugs. The final concentration of drug was 10^−5˜10^−10M, three parallel holes; 37° C., 5% CO2 culture incubator for 72 hours incubation;
(§5) c) Per well was added 20 μl 5 mg/ml of MTT, 37° C., 5% CO2 culture incubator for 4 hours incubation;
(§6) d) The supernatant was discarded. Each well was added 100 μl of DMSO and oscillation;
(§7) e) 570 nm readings. Calculate cell viability. GI50 calculation based on the results.

[2] = tested on: MOLT-4 (human acute lymphoblastic leukemia cells); assay: MTT cancer cell growth inhibition; format: cell-based; settings: Homo sapiens, MOLT-4, 72 h, MTT, 72 hours incubation, read-out: GI50 Mol
Source text: as §1, §2, §3, §4, §5, §6, §7

[3] = tested on: MCF-7 (human breast cancer cells); assay: MTT cancer cell growth inhibition; format: cell-based; settings: Homo sapiens, MCF7, 72 h, 72 hours incubation, read-out: GI50 MCF
Source text: as §1, §2, §3, §4, §5, §6, §7

[4] = tested on: BGC-823 (human gastric cancer cells); assay: MTT cancer cell growth inhibition; format: cell-based; settings: Homo sapiens, BGC-823, 72 h, MTT, 72 hours incubation, read-out: GI50 BG
Source text: as §1, §2, §3, §4, §5, §6, §7

[5] = tested on: H1975 (non-small cell lung adenocarcinoma); assay: MTT cancer cell growth inhibition; format: cell-based; settings: Homo sapiens, NCI-H1975, 72 h, MTT, 72 hours incubation, H1975 cells; read-out: GI50 H1975
Source text: as §1, §2, §3, §4, §5, §6, §7

[6] = tested on: MDA-MB-231 (breast cancer cells); assay: MTT cancer cell growth inhibition; format: cell-based; settings: Homo sapiens, MDA-MB-231, 72 h, read-out: GI50 MDA-MB-231, MTT, 72 hours incubation, MDA-MB-231 cells
Source text: as §1, §2, §3, §4, §5, §6, §7

[7] = tested on: KBM-5 (human chronic myelogenous leukemia); assay: MTT cancer cell growth inhibition; format: cell-based; settings: Homo sapiens, KBM5, 72 h, MTT, 72 hours incubation, KBM-5 cells; read-out: GI50 KBM-5
Source text: as §1, §2, §3, §4, §5, §6, §7

[8] = tested on: HCC827 (human non-small cell lung cancer cells); assay: MTT cancer cell growth inhibition; format: cell-based; settings: Homo sapiens, HCC827, 72 h, MTT, 72 hours incubation, HCC827 cells; read-out: GI50 HCC827
Source text: as §1, §2, §3, §4, §5, §6, §7

[9] = tested on: K562 (human leukemia cells); assay: MTT cancer cell growth inhibition; format: cell-based; settings: Homo sapiens, K562, 72 h, MTT, 72 hours incubation, K562 cells; read-out: GI50 K562
Source text: as §1, §2, §3, §4, §5, §6, §7

[10] = tested on: Bel-7402 (human hepatoma cells); assay: MTT cancer cell growth inhibition; format: cell-based; settings: Homo sapiens, Bel-7402, 72 h, MTT, 72 hours incubation, Bel-7402 cells; read-out: GI50 Bel-7402
Source text: as §1, §2, §3, §4, §5, §6, §7

[11] = tested on: DU145 (human prostate cancer cells); assay: MTT cancer cell growth inhibition; format: cell-based; settings: Homo sapiens, DU-145, 72 h, MTT, 72 hours incubation, read-out: GI50 Du1
Source text: as §1, §2, §3, §4, §5, §6, §7

[12] = tested on: A549 (human lung cancer cells); assay: MTT cancer cell growth inhibition; format: cell-based; settings: Homo sapiens, A549, 72 h, MTT, 72 hours incubation, read-out: GI50 A54
Source text: as §1, §2, §3, §4, §5, §6, §7

[13] = tested on: N-87 (human gastric cancer cells); assay: MTT cancer cell growth inhibition; format: cell-based; settings: Homo sapiens, 72 h, MTT, 72 hours incubation, N-87 cells; read-out: GI50 N-87
Source text: as §1, §2, §3, §4, §5, §6, §7

[14] = tested on: Hela (human cervical cancer cells); assay: MTT cancer cell growth inhibition; format: cell-based; settings: Homo sapiens, HeLa, 72 h, MTT, 72 hours incubation, read-out: GI50 Hela
Source text: as §1, §2, §3, §4, §5, §6, §7

[15] = tested on: U937 (human leukemia cells); assay: MTT cancer cell growth inhibition; format: cell-based; settings: Homo sapiens, U-937, 72 h, MTT, 72 hours incubation, read-out: GI50 U93
Source text: as §1, §2, §3, §4, §5, §6, §7

[16] = tested on: HT1080 (human fibrosarcoma cells); assay: MTT cancer cell growth inhibition; format: cell-based; settings: Homo sapiens, HT-1080, 72 h, MTT, 72 hours incubation, read-out: GI50 HT1
Source text: as §1, §2, §3, §4, §5, §6, §7

[17] = tested on: KBM5-T315I (human chronic myelogenous leukemia); assay: MTT cancer cell growth inhibition; format: cell-based; settings: Homo sapiens, 72 h, MTT, 72 hours incubation, KBM5-T315I cells; read-out: GI50 KBM5-T315I
Source text: as §1, §2, §3, §4, §5, §6, §7

[18] = tested on: SGC-7901 (human gastric cancer cells); assay: MTT cancer cell growth inhibition; format: cell-based; settings: Homo sapiens, SGC-7901, 72 h, MTT, 72 hours incubation, SGC-7901 cells; read-out: GI50 SGC-7901
Source text: as §1, §2, §3, §4, §5, §6, §7

[19] = tested on: PANC-1 (Pac-1, human pancreatic cancer cells); assay: MTT cancer cell growth inhibition; format: cell-based; settings: Homo sapiens, PANC-1, 72 h, MTT, 72 hours incubation, read-out: GI50 PAN
Source text: as §1, §2, §3, §4, §5, §6, §7

[20] = tested on: lncap (prostate cancer cells); assay: MTT cancer cell growth inhibition; format: cell-based; settings: Homo sapiens, LNCaP, 72 h, MTT, 72 hours incubation, read-out: GI50 lnca
Source text: as §1, §2, §3, §4, §5, §6, §7

HDAC7 = biological target: T1, HDAC7 (Homo sapiens, UniProt Q8WUI4); assay: HDAC biochemical activity measurement (fluorescent substrate deacetylation);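 note: fluorogenic deacetylation assay using acetyl-lysine substrate at 20 µM, enzyme and compound incubated 30 min at 37 °C, then developer added, fluorescence read at 360/460 nm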; settings: HDAC7; 37° C. 30 minutes
T1 sequence (Q8WUI4 1-952): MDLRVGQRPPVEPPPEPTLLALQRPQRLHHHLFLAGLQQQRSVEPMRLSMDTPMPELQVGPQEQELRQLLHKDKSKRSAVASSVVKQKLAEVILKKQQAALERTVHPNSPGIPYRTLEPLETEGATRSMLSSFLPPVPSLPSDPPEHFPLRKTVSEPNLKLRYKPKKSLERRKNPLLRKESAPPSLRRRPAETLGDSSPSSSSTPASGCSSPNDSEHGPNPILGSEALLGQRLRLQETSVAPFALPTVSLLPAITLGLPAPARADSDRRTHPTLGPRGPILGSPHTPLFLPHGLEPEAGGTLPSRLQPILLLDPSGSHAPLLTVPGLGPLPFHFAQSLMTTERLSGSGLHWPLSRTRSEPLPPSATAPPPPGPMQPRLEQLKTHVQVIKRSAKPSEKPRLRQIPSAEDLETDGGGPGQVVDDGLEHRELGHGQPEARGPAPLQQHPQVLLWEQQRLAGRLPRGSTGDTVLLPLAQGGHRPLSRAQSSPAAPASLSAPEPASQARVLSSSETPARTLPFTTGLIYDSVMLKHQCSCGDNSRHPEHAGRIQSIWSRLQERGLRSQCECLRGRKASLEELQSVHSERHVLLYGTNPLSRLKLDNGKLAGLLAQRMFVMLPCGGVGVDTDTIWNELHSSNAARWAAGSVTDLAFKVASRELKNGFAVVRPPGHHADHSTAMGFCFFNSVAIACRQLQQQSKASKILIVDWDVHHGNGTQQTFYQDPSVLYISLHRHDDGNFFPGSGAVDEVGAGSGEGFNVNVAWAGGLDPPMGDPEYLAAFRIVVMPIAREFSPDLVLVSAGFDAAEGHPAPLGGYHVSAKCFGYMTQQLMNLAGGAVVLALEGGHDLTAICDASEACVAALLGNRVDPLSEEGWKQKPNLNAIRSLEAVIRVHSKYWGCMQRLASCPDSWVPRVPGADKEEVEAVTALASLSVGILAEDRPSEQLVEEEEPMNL

SMILES	GI50 [1] [µM]	GI50 [2] [µM]	GI50 [3] [µM]	GI50 [4] [µM]	GI50 [5] [µM]	GI50 [6] [µM]	GI50 [7] [µM]	GI50 [8] [µM]	GI50 [9] [µM]	GI50 [10] [µM]	GI50 [11] [µM]	GI50 [12] [µM]	GI50 [13] [µM]	GI50 [14] [µM]	GI50 [15] [µM]	GI50 [16] [µM]	GI50 [17] [µM]	GI50 [18] [µM]	GI50 [19] [µM]	IC50 HDAC7 (HDAC7)	further results
C/C=C1\NC(=O)c2cc(F)cc(n2)CNC(=O)C[C@@H](/C=C/CCS)OC(=O)[C@H](C)NC1=O [Compound 113]	0.021	0.1	0.05	0.07	0.024	0.031	0.036	0.048	0.047	0.034	0.05	0.06	0.042	0.08	0.06	0.1	0.051	0.095	0.07	no activity	GI50 [20]: 0.08 µM
C/C=C1\NC(=O)c2ccc(F)c(n2)CNC(=O)C[C@@H](/C=C/CCS)OC(=O)[C@H](CCCCN)NC1=O [Compound 118]	0.041	0.02	0.06	0.06	0.035	0.031	0.041	0.053	0.029	0.027	0.04	0.03	0.061	0.07	0.03	0.08	0.057	0.039	0.08	no activity	GI50 [20]: 0.02 µM
C/C=C1\NC(=O)c2cc(SC)cc(n2)CNC(=O)C[C@@H](/C=C/CCSC(C)=O)OC(=O)[C@H](Cc2ccc(O)cc2)NC1=O [Compound 202]	0.031				0.058	0.041	0.038	0.032	0.015	0.076			0.029				0.026	0.031		no activity	GI50 ([2]; MOLT-4 cells): 0.05 µM; GI50 ([3]; MCF-7 cells): 0.03 µM; GI50 ([4]; BGC-823 cells): 0.04 µM; GI50 ([11]; DU145 cells): 0.07 µM; GI50 ([12]; A549 cells): 0.05 µM; GI50 ([14]; Hela cells): 0.02 µM; GI50 ([15]; U937 cells): 0.02 µM; GI50 ([16]; HT1080 cells): 0.03 µM; GI50 ([19]; PANC-1 cells): 0.03 µM; GI50 ([20]; lncap cells): 0.02 µM
C/C=C1\NC(=O)c2nc(ccc2SC)CNC(=O)C[C@@H](/C=C/CCSC(=O)CCCCCC)OC(=O)[C@H](C(C)C)NC1=O [Compound 150]	0.046				0.079	0.021	0.026	0.063	0.055	0.058			0.033				0.039	0.087		no activity	GI50 ([2]; MOLT-4 cells): 0.08 µM; GI50 ([3]; MCF-7 cells): 0.04 µM; GI50 ([4]; BGC-823 cells): 0.03 µM; GI50 ([11]; DU145 cells): 0.04 µM; GI50 ([12]; A549 cells): 0.03 µM; GI50 ([14]; Hela cells): 0.06 µM; GI50 ([15]; U937 cells): 0.03 µM; GI50 ([16]; HT1080 cells): 0.08 µM; GI50 ([19]; PANC-1 cells): 0.03 µM; GI50 ([20]; lncap cells): 0.06 µM
